Experimental data reported in patent US20040253255A1, “Biological compositions and methods for treatment of nasopharyngeal cancer” (priority 2003, published 2004).
Like-named read-outs stand apart in the source and are kept apart here.

What was measured:
[1] = system: human nasopharyngeal cancer; assay type: in vivo, mice; details: for Number of live animals remaining in the groups after 30 days of treatment: mice, 30 per group
Experimental: The biological composition comprising […] per ml of activated and conditioned yeast cells of the strain Saccharomyces carlsbergensis Hansen strain AS2.116 was prepared by the methods described in Section 5.1 and subsections therein.
The animals were prepared in a similar manner as described in Section 8.1.
(§1) The mice injected with tumor cells were divided into 4 experimental groups of ten mice per group and one control group. The four experimental groups were triplicated (i.e., using a total of 120 mice in the experimental groups). In group 2AY, the mice received 0.3 ml of the biological composition once per day. In group 2NY, the mice received 0.3 ml of the untreated yeast cells once per day. In group 2CTX, the mice were injected intravenously with 30 mg of cyclophosphamide (CTX) per kg body weight per day. In group 2CK1, the mice received 0.3 ml of physiological saline once per day.
(§2) The mice received the biological compositions, untreated yeast cells, CTX or saline on the same day as the tumor cells were transplanted. The mice in group 2CK2 also started receiving saline on the same day as the other four groups. The biological compositions, untreated yeast cells and saline were administered orally by a feeding tube and the CTX by intravenous injection for 30 consecutive days. The mice were observed over 6 months from the day of tumor inoculation and survival was recorded. The weight of the mice and the weight of the tumor were determined by standard techniques.

[2] = system: human nasopharyngeal cancer; assay type: in vivo; details: tumor-bearing mice, 30 consecutive days of treatment, sacrificed on 31st day
Experimental: The mice injected with tumor cells were divided into 4 experimental groups of ten mice per group and one control group. The four experimental groups were triplicated (i.e., using a total of 120 mice in the experimental groups).
The mice in group CK2 also started receiving saline on the same day as the other four groups. The biological compositions, untreated yeast cells and saline were administered orally by a feeding tube and the CTX by intravenous injection for 30 consecutive days.

[3] = system: human nasopharyngeal cancer; experiment: rat model of human nasopharyngeal cancer, survival time; assay type: in vivo, Wistar rats; details: for Number of live animals remaining in the groups after 21 days of treatment: rats, 30 per group
Experimental: (§3) The biological composition comprising 10^8 cells per ml of activated and conditioned yeast cells of the strain Saccharomyces carlsbergensis Hansen strain AS2.116 was prepared by the methods described in Section 5.1 and subsections therein.
The animals were prepared in a similar manner as described in Section 6.1.
as §1, with “rats transplanted” for “mice injected”, “rats” for “mice”, “2.0” for “0.3”, “2TSPA,” for “2CTX,”, “1.5” for “with 30”, “thiotepa (TSPA)” for “cyclophosphamide (CTX)”
as §2, with “rats” for “mice”, “TSPA” for “CTX”, “21” for “30”

[4] = system: human nasopharyngeal cancer; experiment: rat model of human nasopharyngeal cancer, growth of the tumor; assay type: in vivo; details: tumor-bearing Wistar rats, 21 consecutive days of treatment, sacrificed on 22nd day
Experimental: as §3
The animals used to generate the nasopharyngeal cancer cells for the experiments were Wistar rats, male and female, 190 to 210 gram in body weight. The rats were starved for 24 hours before the surgery.
Human nasopharyngeal cancer samples (obtainable from Cancer Institute, The Chinese Academy of Medical Sciences, Beijing, China) were carefully selected before, during, and after surgery in order to ensure engraftment occurred at the original position in the rat. The nasopharyngeal cancer samples were obtained from patients who have not received any radiation, chemotherapy or immune enhancement treatment. Nasopharyngeal cancer samples were divided into sections of about 1 mm^3 in size and immediately stored in RPMI-1640 suspension after removal from the human patient.
The animals were generally anaesthetized. […]
The rats received the biological compositions, untreated yeast cells, TSPA or saline on the same day as the tumor cells were transplanted. […] On the 22nd day from tumor inoculation, the rats were sacrificed and the weight of the rats as well as the weight of the tumor were determined by standard techniques.

[5] = 0 month after cessation of treatment
[6] = 1 month after cessation of treatment
[7] = 2 months after cessation of treatment
[8] = 3 months after cessation of treatment
[9] = 4 months after cessation of treatment
[10] = 5 months after cessation of treatment
[11] = 6 months after cessation of treatment
[12] = mice that survived, observed over 6 months
[13] = rats that survived, observed over 6 months

In the case of `O=P1(N(CCCl)CCCl)NCCCO1` (stereo not drawn) [CTX, cyclophosphamide], the “Number of live animals remaining in the groups after 30 days of treatment” value [1, 5] was 30, the “Number of live animals remaining in the groups after 30 days of treatment” value [1, 6] was 27 and the “Number of live animals remaining in the groups after 30 days of treatment” value [1, 7] was 17. For the same molecule, the “Number of live animals remaining in the groups after 30 days of treatment” value [1, 8] was 11, the “Number of live animals remaining in the groups after 30 days of treatment” value [1, 9] was 3 and the “Number of live animals remaining in the groups after 30 days of treatment” value [1, 10] was 0. The “Number of live animals remaining in the groups after 30 days of treatment” value [1, 11] was 0, the survival of mice ([1]; observed over 6 months) was “all died during the experiment” and the “mean weight of mice and standard deviation” value [2] was 19.7 ± 2.4 g. For the same molecule, the “mean weight of tumor nodules and standard deviation” value [2] was 0.86 ± 0.13 g.

`S=P(N1CC1)(N1CC1)N1CC1` [TSPA, thiotepa] was tested, and the “mean weight of mice and standard deviation” value [1, 12] was “all animals dead”, the “mean weight of tumor nodules and standard deviation” value [1, 12] was “all animals dead” and the survival of rats ([3]; from injection of tumor cells) was “all died after four months from injection of tumor cells”. For the same molecule, the “mean weight of rats and standard deviation” value [3, 13] was “all animals dead”, the “mean weight of tumor nodules and standard deviation” value [3, 13] was “all animals dead” and the “Number of live animals remaining in the groups after 21 days of treatment” value [3, 5] was 30. For the same molecule, the “Number of live animals remaining in the groups after 21 days of treatment” value [3, 6] was 26, the “Number of live animals remaining in the groups after 21 days of treatment” value [3, 7] was 24 and the “Number of live animals remaining in the groups after 21 days of treatment” value [3, 8] was 17. The “Number of live animals remaining in the groups after 21 days of treatment” value [3, 9] was 7, the “Number of live animals remaining in the groups after 21 days of treatment” value [3, 10] was 0 and the “Number of live animals remaining in the groups after 21 days of treatment” value [3, 11] was 0. The “mean weight of rats and standard deviation” value [4] was 207 ± 3.8 g and the “mean weight of tumor nodules and standard deviation” value [4] was 1.6 ± 0.74 mg.
